41 compounds from EP1200059B1, “SKIN CARE COMPOSITION” (UNILEVER PLC, priority 1999, dated 2001) can be followed below.

The test system of assay [1] is LRAT and ARAT catalysed retinol esterification. Briefly: in vitro Microsomal Assay, overall verdict on retinol esterification (LRAT and ARAT). The note with it: verdict on the table results.
Protocol: (§3) A solution containing 0.1M sodium phosphate pH 7 buffer, 5mM dithiothreitol, 2 mg/ml bovine serum albumin, 40 micromolar palmitoyl CoA, 40 micromolar dilauroyl phosphatidyl choline, 10 micromolar retinol and a test compound or solvent blank, was incubated for 1 hour at 37°C with a microsomal fraction isolated from bovine retinal pigment epithelial cells. After incubation, the reaction was quenched by addition of an equal volume of ethanol, and the retinyl esters formed (retinyl palmitate from the ARAT catalysed reaction, and retinyl laurate from the LRAT catalysed reaction) were extracted with hexane.
For assay [2], the target named is T1, lecithin retinol acyl transferase (LRAT) (Bos taurus, UniProt Q9BGL2).
T1 sequence (Q9BGL2 1-230): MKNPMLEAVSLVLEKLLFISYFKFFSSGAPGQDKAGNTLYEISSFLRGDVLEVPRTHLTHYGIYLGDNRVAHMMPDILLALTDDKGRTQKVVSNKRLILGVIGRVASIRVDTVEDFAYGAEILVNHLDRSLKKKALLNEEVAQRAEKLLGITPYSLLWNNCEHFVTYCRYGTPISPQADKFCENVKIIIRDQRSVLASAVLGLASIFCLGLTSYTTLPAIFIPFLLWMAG
Put plainly: in vitro Microsomal Assay of retinol esterification, LRAT catalysed (retinyl laurate formation). The settings on record: for % INHIB. LRAT: Table 5; for % INHIBITION, LRAT: Table 6A, 100µM.
Protocol: as §3

For assay [3], the system named is acyl CoA retinol transferase (ARAT). Briefly: in vitro Microsomal Assay of retinol esterification, ARAT catalysed (retinyl palmitate formation).
Protocol: as §3
Assay [4] relates to procollagen-I synthesis in human dermal fibroblasts. Briefly: Dot blot assay for procollagen-I protein in dermal fibroblast conditioned medium. In kind it is cell-based. The note with it: 24 hours, control = 100%. How it is done:
(§1) Primary human foreskin fibroblasts at passage 2 (P2) were seeded into 12-well plates at 10000 cells/cm^2 and maintained for 24 hours in an atmosphere of 5% carbon dioxide and 4% oxygen in Dulbeccos Modified Eagles Medium (DMEM) supplemented with 10% foetal calf serum. After this time the cells were washed with serum free DMEM and then incubated in fresh serum free DMEM for a further 60 hours. The fibroblast monolayers were then washed again with serum free DMEM. Test reagents and vehicle controls were added to the cells in triplicate in a final volume of 0.4ml/well fresh serum free DMEM and incubated for a further 24 hours. This fibroblast conditioned medium was either analysed immediately or snap frozen in liquid nitrogen and stored at -70°C for future analysis. The cells were then counted and data from the dot-blot analysis subsequently standardised to cell number. […]
(§2) At the end of this time the exposed screen was scanned by a phosphorimager (Molecular Dynamics Phosphorimager SF) using ImageQuant™ software. Dot intensity was assessed by computer-assisted image analysis using the quantification tools in ImageQuant™, standardised to cell number and the effects of various test reagents on decorin and procollagen-I synthesis were determined relative to a vehicle treated control value of 100 arbitrary units. […]

The subject of assay [5] is decorin synthesis in human dermal fibroblasts. Put plainly: Dot blot assay for decorin protein in dermal fibroblast conditioned medium. In kind it is cell-based. The settings on record: 24 hours, relative to vehicle control = 100. How it is done: as §1, §2

Entries after “also recorded” stand apart in the source; their conditions may differ. Read-outs that look alike come from different tables or passages of the source.

Turning to `CCCCCCCCCCCCC/C=C/[C@@H](O)[C@H](CO)NC(C)=O` [Acetyl Sphingosine], the “retinol esterification inhibition (result in words)” value (“retinol esterification inhibition” for short) in assay [1] is “potent retinol esterification inhibitors”. The “% INHIB. LRAT” value in assay [2] (10 μM) was found to be 10%; in assay [2] (100 μM), 50%. Moreover, the “% INHIB. ARAT” value in assay [3] (Table 5, 10 μM) is recorded as 19%; in assay [3] (Table 5, 100 μM), 62%. With `CC1=CCCC(C)(C)C1/C=C/C(C)O` (stereo not drawn) [Alpha ionol], the inhibition at 100 µM in assay [2] (read-out: % INHIBITION, LRAT) turned out to be 0%. As for `CCC(=O)/C=C/C1C(C)=CCCC1(C)C` (stereo not drawn) [Alpha methyl ionone], the “% INHIBITION, LRAT” value in assay [2] is recorded as 77%. Besides, the “% INHIBITION, ARAT” value in assay [3] (Table 6A, 100µM) came out at 67%. Turning to `C/C=C/C(=O)C1=C(C)CCCC1(C)C` [Beta damascone], in assay [2] (read-out: % INHIBITION, LRAT), the inhibition at 10 µM was 52% and the inhibition at 100 µM came out at 92%. As for `CC1=C(/C=C/C(C)O)C(C)(C)CCC1` (stereo not drawn) [Beta ionol], in assay [2] (read-out: % INHIBITION, LRAT), the inhibition at 100 µM was determined as 0%.

In the case of `CC1=CCC(CCC(C)CO)C1(C)C` (centres unmarked) [Brahmanol], in assay [2] (read-out: % INHIBITION, LRAT), the inhibition at 100 µM was 75%. For the same compound, the “% INHIBITION, ARAT” value in assay [3] (Table 6A, 100µM) came out at 70%. Regarding `CC12CCC(CC1=O)C2(C)C` (centres unmarked) [Camphor], the inhibition at 100 µM in assay [2] (read-out: % INHIBITION, LRAT) amounted to 0%. In assay [3] (Table 7, 100 µM), the “% INHIBITION, ARAT” value is recorded as 0%. `C=C(C)C1CC=C(C)C(=O)C1` (centres unmarked) [Carvone]: the inhibition at 100 µM in assay [2] (read-out: % INHIBITION, LRAT) was determined as 0%. Further, in assay [3] (Table 7, 100 µM), the “% INHIBITION, ARAT” value is listed as 0%. Turning to `O=CC=Cc1ccccc1` [Cinnamaldehyde], in assay [2] (read-out: % INHIBITION, LRAT), the inhibition at 100 µM is 0%. For the same compound, the “% INHIBITION, ARAT” value in assay [3] (Table 7, 100 µM) came out at 0%. Consider `C/C=C/C(=O)C1=C(C)C=CCC1(C)C` [Damascenone], for which, in assay [2] (read-out: % INHIBITION, LRAT), the inhibition at 10 µM stood at 29% and the inhibition at 100 µM is 79%. In the case of `C/C=C/C(=O)C1C(C)C=CCC1(C)C` (centres unmarked) [Delta damascone], in assay [2] (read-out: % INHIBITION, LRAT), the inhibition at 10 µM stood at 64% and the inhibition at 100 µM was found to be 95%. On to `CC(=O)CCC1C(C)=CCCC1(C)C` (stereo not drawn) [Dihydro alpha ionone], for which the “% INHIBITION, ARAT” value in assay [3] (Table 7, 100 µM) was found to be 13%. With `CCOC(=O)C1=C(C)C=CCC1(C)C` [Ethyl saffranate], the “% INHIBITION, LRAT” value in assay [2] is reported as 49%. Turning to `CC12CCC(CC1)C(C)(C)O2` [Eucalyptol], the inhibition at 100 µM in assay [2] (read-out: % INHIBITION, LRAT) was found to be 0%. The “% INHIBITION, ARAT” value in assay [3] (Table 7, 100 µM) came out at 0%. As for `CC(C)=CCCC(C)=CCCC(C)=CCO` [Farnesol], the “retinol esterification inhibition” value in assay [1] is “inhibit retinol esterification”. In addition, in assay [2] (read-out: % INHIB. LRAT), the inhibition at 10 µM was determined as 10% and the inhibition at 100 µM was 43%. In addition, in assay [3] (Table 8, 10 µM), the “% INHIB. ARAT” value worked out at 20%. Besides, the “% INHIB. ARAT” value in assay [3] (Table 8, 100 µM) was found to be 43%.

For the compound `CC12CCC(C1)C(C)(C)C2O` (centres unmarked) [Fenchyl alcohol], the “% INHIBITION, ARAT” value in assay [3] (Table 7, 100 µM) came to 12%.

As for `CC(=O)/C(C)=C/C1C(C)=CCCC1(C)C` (centres unmarked) [Gamma methyl ionone], in assay [2], the “% INHIBITION, LRAT” value is 38%. Turning to `CC(C)=CCC/C(C)=C/CC/C(C)=C/CC/C(C)=C/CO` [Geranyl Geraniol], in assay [1], the “retinol esterification inhibition” value is “inhibit retinol esterification; also recorded: potent inhibitor of retinol esterification”. Also, in assay [2] (read-out: % INHIB. LRAT), the inhibition at 10 µM worked out at 16% and the inhibition at 100 µM came out at 77%. Further, the “% INHIB. ARAT” value in assay [3] (Table 8, 10 µM) was found to be 38%. Besides, the “% INHIB. ARAT” value in assay [3] (Table 8, 100 µM) worked out at 81%.

For the compound `CC1=CCCC(C)(C)C1/C=C/C(=O)CC(C)C` (centres unmarked) [Isobutyl ionone], the “% INHIBITION, LRAT” value in assay [2] came out at 45%.

For the compound `CC1=CC(C)C(CO)C(C)C1` (centres unmarked) [Isocyclogeraniol], the inhibition at 100 µM in assay [2] (read-out: % INHIBITION, LRAT) is 16%. Further, the “% INHIBITION, ARAT” value in assay [3] (Table 7, 100 µM) was determined as 18%. Take `CC=CC(=O)C1CCC(C)(C)C=C1C` (centres unmarked) [Isodamascone]: in assay [2], the “% INHIBITION, LRAT” value is 92%. In addition, the “% INHIBITION, ARAT” value in assay [3] (Table 6A, 100µM) worked out at 80%. Consider `CCCCC/C=C\C/C=C\CCCCCCCC(=O)N(CCO)CCO` [Linoleamide-DEA (LODEA), Linoleamide-DEA], for which the “retinol esterification inhibition” value in assay [1] is “potent retinol esterification inhibitors”. In assay [2] (read-out: % INHIB. LRAT), the inhibition at 10 µM was determined as 11% and the inhibition at 100 µM amounted to 51%. Regarding `CCCCC/C=C\C/C=C\CCCCCCCC(=O)NCCO` [Linoleamide-MEA (LOMEA), Linoleamide-MEA], the “retinol esterification inhibition” value in assay [1] is recorded as “potent retinol esterification inhibitors”. In the case of `CC(C)(O)CCCC1=CCC(C=O)CC1` (centres unmarked) [Lyral], in assay [3] (Table 6A, 100µM), the “% INHIBITION, ARAT” value is on record as 76%.

Regarding `CC(C)[C@@H]1CC[C@@H](C)CC1=O` [Mentone], the inhibition at 100 µM in assay [2] (read-out: % INHIBITION, LRAT) is 0%. With `Cc1ccc(C(C)C)c(O)c1` [Thymol], the inhibition at 100 µM in assay [2] (read-out: % INHIBITION, LRAT) worked out at 0%. In assay [3] (Table 7, 100 µM), the “% INHIBITION, ARAT” value was determined as 0%. For the compound `CC(=O)c1cc2c(cc1C)C(C)(C)C(C)CC2(C)C` (centres unmarked) [Tonalid], in assay [2] (read-out: % INHIBITION, LRAT), the inhibition at 100 µM amounted to 33%. The “% INHIBITION, ARAT” value in assay [3] (Table 6A, 100µM) is given as 50%. As to `CC(=O)c1cc2c(cc1C)C(C)(C)[C@H](C)[C@H]2C(C)C` [Traseolide], in assay [3] (Table 6A, 100µM), the “% INHIBITION, ARAT” value was 41%.

For `COc1cc(C=O)ccc1O` [Vanillin], the inhibition at 100 µM in assay [2] (read-out: % INHIBITION, LRAT) was 0%. Moreover, the “% INHIBITION, ARAT” value in assay [3] (Table 7, 100 µM) is recorded as 0%. On to `Nc1ncnc2nc[nH]c12` [adenine], for which the inhibition at 100 µM in assay [2] (read-out: % INHIB. LRAT) is 0%. For the same compound, the “% INHIB. ARAT” value in assay [3] (Table 5, 100 μM) is 0%. Turning to `CC=CC(=O)C1C(C)=CCCC1(C)C` (stereo not drawn) [alpha damascone], in assay [2] (read-out: % INHIBITION, LRAT), the inhibition at 10 µM worked out at 87% and the inhibition at 100 µM amounted to 98%. Besides, the “% INHIBITION, ARAT” value in assay [3] (Table 6A, 100µM) came out at 83%. Further, the “% INHIBITION, ARAT” value in assay [3] (Table 6B, 10µM) was determined as 67%. Turning to `O=C(NCO)N(CO)C1(CO)C(=O)NC(=O)N1CO` (centres unmarked) [diazolidinyl urea], the inhibition at 100 µM in assay [2] (read-out: % INHIB. LRAT) turned out to be 0%. For the same compound, the “% INHIB. ARAT” value in assay [3] (Table 5, 100 μM) is reported as 0%. Take `Cc1ncc(C[n+]2csc(CCO)c2C)c(N)n1` [thiamine]: the inhibition at 100 µM in assay [2] (read-out: % INHIB. LRAT) is 0%. The “% INHIB. ARAT” value in assay [3] (Table 5, 100 μM) is reported as 0%.

As for `CC1=C(/C=C/C(C)=C/C=C/C(C)=C/C(=O)O)C(C)(C)CCC1` [trans Retinoic acid, reference compound], the “Procollagen 1” value in assay [4] (0.01 µM trans Retinoic acid) is recorded as 102.8%.

Take `N[C@@H](Cc1c[nH]c2ccccc12)C(=O)O` [tryptophan]: the inhibition at 100 µM in assay [2] (read-out: % INHIB. LRAT) was 0%. Moreover, in assay [3] (Table 5, 100 μM), the “% INHIB. ARAT” value is listed as 0%. For the compound `O=c1cc[nH]c(=O)[nH]1` [uracil], the inhibition at 100 µM in assay [2] (read-out: % INHIB. LRAT) was found to be 0%. Further, in assay [3] (Table 5, 100 μM), the “% INHIB. ARAT” value came to 0%. Ceramide 6: the Decorin in assay [5] (0.01 µM Ceramide 6) worked out at 101.2%. For the compound Sandalone, the “% INHIBITION, LRAT” value in assay [2] is 12%. The “% INHIBITION, ARAT” value in assay [3] (Table 6A, 100µM) worked out at 23%.

Turning to Sandanol, the “% INHIBITION, LRAT” value in assay [2] worked out at 43%. For the same compound, the “% INHIBITION, ARAT” value in assay [3] (Table 6A, 100µM) was 15%. For conjugated linoleic acid [CLA], the Decorin in assay [5] (0.1 µM CLA) is recorded as 96.8%. Moreover, the “Procollagen 1” value in assay [4] (0.1 µM CLA) is given as 78.9%. With disodium cocamphodiacetate, the “% INHIB. LRAT” value in assay [2] (100 μM) was 0%.
